This is an account of results in patent publication US20230098403A1, “MAGNETIC RESONANCE IMAGING CONTRAST AGENT, PREPARATION METHOD AND USE THEREOF” (GUANGZHOU PINGLAN MEDICAL TECHNOLOGY CO., LTD., priority 2020, published 2023).

Data set [1] is described as follows: Relaxivity measurement (T1 and T2 relaxation, MRI Contrast Agent Analyzer). The format is physicochemical. The conditions noted are these: 0.5 T, 32° C. How it is done:
The method for measuring the relaxivity comprises the following steps: preparing contrast agent solutions in a gradient concentration (0.054, 0.109, 0.224, 0.451, 0.906 mM, in Hepes buffer, pH=7.4), and measuring the contrast agent samples at different concentrations by Niumag PQ001 MRI Contrast Agent Analyzer (0.5±0.08T, main frequency of instrument: 21.3 MHz; at 32° C.) to respectively obtain their T1 and T2 relaxation time, and then performing a linear fitting between the relaxation rate, Ri (Ri=1/Ti, i=1, 2) and the contrast agent concentrations to obtain a slope, i.e., relaxivity (ri, i=1, 2). Relaxivity reflects the ability of magnetic resonance imaging contrast agent to alter the relaxation time of water proton and is an important parameter to evaluate the quality of contrast agent. Relaxivity (ri, i=1, 2) is defined as the alteration in the relaxation rate of water proton (1/Ti, i=1, 2) by unit concentration of MRI Contrast agent (mmol/L).

For data set [2] the following is noted: comparison value for the commercial agent; cited from earlier work.

Regarding `O=C([O-])CN(CP(=O)([O-])O)C1CCCCC1N(CC(=O)[O-])CP(=O)([O-])O.[Fe+3].[Na+]` (centres unmarked) [Example 4], the “relaxation efficiency r1” value in data set [1] was found to be 1.80 mmol⁻¹ s⁻¹.
As to `CNC[C@H](O)[C@@H](O)[C@H](O)[C@H](O)CO.CNC[C@H](O)[C@@H](O)[C@H](O)[C@H](O)CO.O=C([O-])CN(CCN(CC(=O)[O-])CC(=O)O)CCN(CC(=O)[O-])CC(=O)O.[Gd+3]` [Magnvist®], the “relaxivity r1” value in data set [2] was 3.4 mmol⁻¹ s⁻¹.
